{
  "source": "paper PMC9817970",
  "about": "(Cancers, 2022)",
  "key": {"GIST-T1 cells [1]": {"test_system": "GIST-T1 cells", "experiment": "Cell viability assay (CellTiter-Glo)", "assay_type": "cell-based", "settings": "Homo sapiens, GISTT1; 72 h; concentration causing half-maximal growth inhibition", "method": "(§1) GIST-T1 (Cosmobio, Tokyo, Japan, # PMC-GIST01C-COS) cells were cultured in DMEM (Welgene, # LM001-05) and HMC1.2 (Merck, Darmstadt, Germany, # SCC062) cells were cultured in IMDM (Welgene, # LM004-01). Parental Ba/F3 (DSMZ, Braunschweig, Germany, # ACC300) cells were cultured in RPMI (Welgene, # LM011-51) with 10 ng IL-3/mL (Enzo, # ALX-201-821). The culture media was supplemented with 10% fetal bovine serum and 1% penicillin/streptomycin solution. The cells were maintained in a humidified atmosphere containing 5% CO2 at 37 °C.\n(§2) Cells (GIST-T1: 5.0 × 10^3; HMC1.2: 1 × 10^4) were seeded in 96-well plates. Each compound was treated in each well at 10 dose points of 3-fold serial dilution. After treatment with each compound for 72 h, CellTiter-Glo solution (Promega, # G7572) was added to each well. Anti-proliferation activity was measured the luminescence using a 96-well plate reader (EnVision 2013)."}, "HMC1.2 cells [2]": {"test_system": "HMC1.2 cells", "experiment": "Cell viability assay (CellTiter-Glo)", "assay_type": "cell-based, human", "settings": "Homo sapiens, 72 h", "method": "as §1, §2"}, "c-KIT D816V Ba/F3 cells [3]": {"test_system": "c-KIT D816V Ba/F3 cells", "experiment": "Anti-proliferative activity on Ba/F3 cells", "assay_type": "cell-based", "settings": "Mus musculus, BaF3"}, "parental Ba/F3 cells": {"test_system": "parental Ba/F3 cells", "experiment": "Anti-proliferative activity on Ba/F3 cells", "assay_type": "cell-based", "settings": "Mus musculus, BaF3", "method": "as §1, §2"}, "[4]": {"test_system": "c-KIT auto-phosphorylation in HMC1.2 cells", "experiment": "Western blot of c-KIT signaling", "assay_type": "cell-based, human", "settings": "10 μM", "method": "(§3) Cells were harvested and lysed using RIPA buffer containing 50 mM HEPES (pH 7.4), 1% Triton X-100, 2 mM EDTA, 150 mM NaCl, 2.5 mM NaF, 5 mM Na3VO4, and protease inhibitor cocktail tablet (Roche, # 11–878-580–001). Proteins were separated and transferred to an NC membrane. The membranes were blocked using 5% skim milk in TBS-T buffer. The p-c-KIT (Tyr703, # 3073), p-AKT (Ser473, # 9271), p-ERK (Thr202/Tyr204, # 8544), ERK (# 4695), p-PLCγ (Tyr783, # 14008), p-STAT3 (Tyr705, # 4074), and PARP (# 9542) antibodies were obtained from Cell Signaling Technologies. The β-actin (# sc-47778) and STAT3 (# sc-482) antibodies were obtained from Santa Cruz Biotechnology. AKT (A18120) antibody was purchased from ABclonal. Each primary antibody was incubated overnight at 4 °C. The secondary antibody (GenDEPOT) was incubated for 1 h at room temperature. Proteins were detected using ECL substrate."}, "[5]": {"test_system": "phosphorylated c-KIT (Tyr703) and downstream signaling in GIST-T1 cells", "experiment": "Western blot of c-KIT signaling", "assay_type": "cell-based, human", "method": "as §3"}, "[6]": {"test_system": "c-KIT auto-phosphorylation in c-KIT D816V Ba/F3 cells", "experiment": "Western blot of c-KIT signaling", "assay_type": "cell-based", "settings": "10 μM", "method": "as §3"}, "c-KIT D816V Ba/F3 cells [7]": {"test_system": "c-KIT D816V Ba/F3 cells", "experiment": "Apoptosis analysis (annexinV/PI flow cytometry)", "assay_type": "cell-based", "settings": "c-KIT D816V Ba/F3, 1 μM", "method": "(§4) After compound treatment in GIST-T1 and HMC1.2 cells for 24 h, cells were fixed with 70% cold ethanol. Then, cells were incubated with 50 μg propidium iodide/mL solution (PI, Sigma) containing 1 mg RNase A/mL for 30 min in the dark. Cell cycle arrest was analyzed (BD Accuri), and data were processed using BD Accuri^TM C6 software. For apoptosis analysis, compound treatment for 24–48 h, cells were harvested and stained with annexinV and PI solution. 1 × 10^5 cells were analyzed using flow cytometric analysis."}, "GIST-T1 cells [8]": {"test_system": "GIST-T1 cells", "experiment": "Cell cycle arrest analysis (PI flow cytometry)", "assay_type": "cell-based, human", "settings": "GIST-T1, 0.01 μM", "method": "as §4"}, "HMC1.2 cells [9]": {"test_system": "HMC1.2 cells", "experiment": "Cell cycle arrest analysis (PI flow cytometry)", "assay_type": "cell-based, human", "settings": "HMC1.2, 0.5 μM, 24 h", "method": "as §4"}, "GIST-T1 cells [10]": {"test_system": "GIST-T1 cells", "experiment": "Migration (wound healing) assay", "assay_type": "cell-based, human", "settings": "GIST-T1, 0.005 μM and 0.05 μM, 36 h", "method": "GIST-T1 cells were seeded in 6-well plates at 2 × 10^6 cells. Next day, cells were washed with PBS and wounded in the center of each well. Then, GIST-T1 cells were washed with PBS and added to fresh DMEM."}, "GIST-T1 cells [11]": {"test_system": "GIST-T1 cells", "experiment": "Soft agar assay (anchorage-independent growth)", "assay_type": "cell-based, human", "settings": "3 weeks", "method": "Anchorage-independent growth was assessed by determining colony formation on soft agar. GIST-T1 cells in DMEM media containing 0.7% agar were plated at 5,000 cells per well. Cells were treated with each compound for 3 weeks, and the media were changed every 3 days. Colonies were stained using iodonitrotetrazolium chloride (Sigma Aldrich). The average number colonies were counted using ImageJ software (version 1.53e, National Institutes of Health, Bethesda, MD, USA)"}, "CAMK1d": {"biological_target": "T1, CAMK1d (Homo sapiens, UniProt Q8IU85)", "T1 construct": "purchased Reaction Biology Corp", "T1 sequence (Q8IU85 whole entry)": "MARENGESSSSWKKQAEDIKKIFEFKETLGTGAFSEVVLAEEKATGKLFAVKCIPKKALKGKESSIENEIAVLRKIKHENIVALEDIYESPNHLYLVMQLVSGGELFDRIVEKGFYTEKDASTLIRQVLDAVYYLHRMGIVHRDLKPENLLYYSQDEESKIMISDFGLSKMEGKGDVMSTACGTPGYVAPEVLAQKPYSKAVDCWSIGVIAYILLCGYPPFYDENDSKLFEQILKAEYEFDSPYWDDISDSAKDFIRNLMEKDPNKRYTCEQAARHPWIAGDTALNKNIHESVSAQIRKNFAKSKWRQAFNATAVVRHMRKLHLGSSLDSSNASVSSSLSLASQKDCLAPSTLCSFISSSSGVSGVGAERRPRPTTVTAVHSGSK", "experiment": "Kinase panel profiling", "assay_type": "biochemical", "settings": "10 μM ATP", "method": "(§5) Kinase panel profiling was conducted by Reaction Biology Corp. (San Diego, CA, USA). A single dose (1.0 μM) of 6r was tested against 371 recombinant human kinases in the presence of 10 μM ATP."}, "CK1d": {"biological_target": "T2, CK1d (Homo sapiens, UniProt P48730)", "T2 construct": "purchased Reaction Biology Corp", "T2 sequence (P48730 whole entry)": "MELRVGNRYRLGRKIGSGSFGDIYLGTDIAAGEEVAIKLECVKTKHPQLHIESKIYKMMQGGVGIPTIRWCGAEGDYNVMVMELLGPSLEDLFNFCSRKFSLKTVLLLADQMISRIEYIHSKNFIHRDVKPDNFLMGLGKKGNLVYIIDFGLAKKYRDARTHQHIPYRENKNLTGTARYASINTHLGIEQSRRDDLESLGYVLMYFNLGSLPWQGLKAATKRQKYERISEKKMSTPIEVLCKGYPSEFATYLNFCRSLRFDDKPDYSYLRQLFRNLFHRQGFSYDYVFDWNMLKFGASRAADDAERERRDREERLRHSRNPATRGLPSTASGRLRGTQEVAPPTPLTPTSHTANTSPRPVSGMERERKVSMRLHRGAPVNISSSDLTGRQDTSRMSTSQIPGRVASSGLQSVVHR", "experiment": "Kinase panel profiling", "assay_type": "biochemical", "settings": "10 μM ATP", "method": "as §5"}, "MKK7": {"biological_target": "T3, MKK7 (Homo sapiens, UniProt O14733)", "T3 construct": "purchased Reaction Biology Corp", "T3 sequence (O14733 whole entry)": "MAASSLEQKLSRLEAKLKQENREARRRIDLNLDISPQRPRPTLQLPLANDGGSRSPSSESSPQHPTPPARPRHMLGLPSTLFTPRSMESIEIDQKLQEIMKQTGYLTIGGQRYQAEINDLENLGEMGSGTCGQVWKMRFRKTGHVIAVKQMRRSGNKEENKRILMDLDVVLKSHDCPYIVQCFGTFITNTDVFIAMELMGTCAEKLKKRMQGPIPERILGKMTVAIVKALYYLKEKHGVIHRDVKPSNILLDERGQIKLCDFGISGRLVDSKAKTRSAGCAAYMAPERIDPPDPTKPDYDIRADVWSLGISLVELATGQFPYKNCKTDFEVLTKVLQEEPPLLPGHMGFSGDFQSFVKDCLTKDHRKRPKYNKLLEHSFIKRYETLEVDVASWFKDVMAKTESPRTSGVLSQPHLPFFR", "experiment": "Kinase panel profiling", "assay_type": "biochemical", "settings": "10 μM ATP", "method": "as §5"}, "PKA": {"biological_target": "T4, PKA (Homo sapiens, UniProt P17612)", "T4 construct": "purchased Reaction Biology Corp", "experiment": "Kinase panel profiling", "assay_type": "biochemical", "settings": "10 μM ATP", "method": "as §5"}, "SRPK2": {"biological_target": "T5, SRPK2 (Homo sapiens, UniProt P78362)", "T5 construct": "purchased Reaction Biology Corp", "T5 sequence (P78362 whole entry)": "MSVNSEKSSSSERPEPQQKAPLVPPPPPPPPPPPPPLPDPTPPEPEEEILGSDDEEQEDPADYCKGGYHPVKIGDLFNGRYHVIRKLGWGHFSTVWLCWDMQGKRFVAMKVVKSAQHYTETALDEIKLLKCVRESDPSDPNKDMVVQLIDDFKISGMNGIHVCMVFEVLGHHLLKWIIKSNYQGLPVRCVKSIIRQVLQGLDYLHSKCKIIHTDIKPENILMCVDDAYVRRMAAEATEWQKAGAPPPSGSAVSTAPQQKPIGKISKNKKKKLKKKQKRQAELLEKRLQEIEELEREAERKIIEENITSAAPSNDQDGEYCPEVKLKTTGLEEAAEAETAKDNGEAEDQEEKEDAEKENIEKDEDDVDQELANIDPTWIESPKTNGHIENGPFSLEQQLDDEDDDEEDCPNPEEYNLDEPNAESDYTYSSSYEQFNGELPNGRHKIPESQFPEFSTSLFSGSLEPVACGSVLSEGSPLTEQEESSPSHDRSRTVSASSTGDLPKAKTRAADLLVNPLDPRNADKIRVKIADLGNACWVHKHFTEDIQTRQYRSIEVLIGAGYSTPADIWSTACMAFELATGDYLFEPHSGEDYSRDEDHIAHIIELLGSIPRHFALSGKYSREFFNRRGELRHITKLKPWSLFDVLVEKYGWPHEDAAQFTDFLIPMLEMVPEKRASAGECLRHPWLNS", "experiment": "Kinase panel profiling", "assay_type": "biochemical", "settings": "10 μM ATP", "method": "as §5"}, "STK25/YSK1": {"biological_target": "T6, STK25/YSK1 (Homo sapiens, UniProt O00506)", "T6 construct": "purchased Reaction Biology Corp", "T6 sequence (O00506 whole entry)": "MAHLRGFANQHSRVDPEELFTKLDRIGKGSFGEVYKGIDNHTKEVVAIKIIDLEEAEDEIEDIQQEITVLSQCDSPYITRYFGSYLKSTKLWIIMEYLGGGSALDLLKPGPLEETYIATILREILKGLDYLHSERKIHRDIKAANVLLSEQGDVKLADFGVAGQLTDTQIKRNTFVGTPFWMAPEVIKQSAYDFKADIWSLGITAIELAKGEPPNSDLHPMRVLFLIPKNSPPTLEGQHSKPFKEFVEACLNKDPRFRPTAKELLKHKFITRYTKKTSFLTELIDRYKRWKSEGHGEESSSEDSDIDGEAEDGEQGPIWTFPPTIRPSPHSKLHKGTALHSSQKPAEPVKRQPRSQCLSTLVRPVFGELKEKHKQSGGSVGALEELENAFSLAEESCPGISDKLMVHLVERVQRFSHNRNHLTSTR", "experiment": "Kinase panel profiling", "assay_type": "biochemical", "settings": "10 μM ATP", "method": "as §5"}, "TEC": {"biological_target": "T7, TEC (Homo sapiens, UniProt P42680)", "T7 construct": "purchased Reaction Biology Corp", "T7 sequence (P42680 whole entry)": "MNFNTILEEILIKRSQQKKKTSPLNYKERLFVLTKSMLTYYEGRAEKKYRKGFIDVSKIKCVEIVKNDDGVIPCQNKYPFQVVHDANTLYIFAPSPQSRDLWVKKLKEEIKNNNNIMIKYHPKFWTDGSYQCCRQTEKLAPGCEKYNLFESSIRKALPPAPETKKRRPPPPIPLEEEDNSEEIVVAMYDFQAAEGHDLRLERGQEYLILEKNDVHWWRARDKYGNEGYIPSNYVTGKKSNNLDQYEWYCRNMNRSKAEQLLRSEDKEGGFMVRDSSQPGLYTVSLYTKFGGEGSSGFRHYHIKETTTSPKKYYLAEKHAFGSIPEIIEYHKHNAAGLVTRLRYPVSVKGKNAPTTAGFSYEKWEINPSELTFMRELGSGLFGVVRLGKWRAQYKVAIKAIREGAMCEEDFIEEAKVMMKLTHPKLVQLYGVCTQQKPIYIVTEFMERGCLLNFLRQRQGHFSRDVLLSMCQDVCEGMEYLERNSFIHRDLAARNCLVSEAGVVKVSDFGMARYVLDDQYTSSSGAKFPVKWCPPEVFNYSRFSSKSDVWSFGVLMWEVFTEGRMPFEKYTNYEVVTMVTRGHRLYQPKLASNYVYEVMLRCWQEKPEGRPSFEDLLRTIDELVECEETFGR", "experiment": "Kinase panel profiling", "assay_type": "biochemical", "settings": "10 μM ATP", "method": "as §5"}, "c-MER": {"biological_target": "T8, c-MER (Homo sapiens, UniProt Q12866)", "T8 construct": "purchased Reaction Biology Corp", "T8 sequence (Q12866 21-999)": "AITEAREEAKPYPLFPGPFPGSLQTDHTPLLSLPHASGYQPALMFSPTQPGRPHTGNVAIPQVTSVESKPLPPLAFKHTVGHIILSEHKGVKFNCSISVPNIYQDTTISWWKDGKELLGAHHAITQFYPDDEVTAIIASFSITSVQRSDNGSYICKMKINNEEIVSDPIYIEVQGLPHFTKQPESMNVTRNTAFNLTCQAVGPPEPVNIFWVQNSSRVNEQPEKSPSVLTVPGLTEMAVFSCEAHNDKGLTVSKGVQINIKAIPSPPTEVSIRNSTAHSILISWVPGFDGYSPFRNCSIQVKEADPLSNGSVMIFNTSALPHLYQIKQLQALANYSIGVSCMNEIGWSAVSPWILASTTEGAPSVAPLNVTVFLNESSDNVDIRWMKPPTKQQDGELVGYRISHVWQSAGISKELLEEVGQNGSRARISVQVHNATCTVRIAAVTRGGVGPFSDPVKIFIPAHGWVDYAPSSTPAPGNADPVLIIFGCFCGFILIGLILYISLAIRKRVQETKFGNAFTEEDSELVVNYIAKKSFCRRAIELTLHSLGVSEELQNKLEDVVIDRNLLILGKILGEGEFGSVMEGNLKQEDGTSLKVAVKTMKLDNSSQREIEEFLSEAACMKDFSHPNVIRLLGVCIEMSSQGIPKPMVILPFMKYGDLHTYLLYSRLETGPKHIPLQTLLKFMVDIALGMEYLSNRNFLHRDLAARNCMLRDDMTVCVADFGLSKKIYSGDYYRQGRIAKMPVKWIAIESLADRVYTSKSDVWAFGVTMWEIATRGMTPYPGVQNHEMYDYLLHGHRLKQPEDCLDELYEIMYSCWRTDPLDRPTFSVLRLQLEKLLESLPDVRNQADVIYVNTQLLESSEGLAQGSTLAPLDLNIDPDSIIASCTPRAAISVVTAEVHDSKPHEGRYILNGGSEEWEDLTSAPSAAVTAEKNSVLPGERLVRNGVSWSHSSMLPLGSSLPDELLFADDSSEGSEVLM", "experiment": "Kinase panel profiling", "assay_type": "biochemical", "settings": "10 μM ATP", "method": "as §5"}, "c-KIT": {"biological_target": "c-KIT (Homo sapiens, UniProt P10721)", "sequence (P10721 26-976)": "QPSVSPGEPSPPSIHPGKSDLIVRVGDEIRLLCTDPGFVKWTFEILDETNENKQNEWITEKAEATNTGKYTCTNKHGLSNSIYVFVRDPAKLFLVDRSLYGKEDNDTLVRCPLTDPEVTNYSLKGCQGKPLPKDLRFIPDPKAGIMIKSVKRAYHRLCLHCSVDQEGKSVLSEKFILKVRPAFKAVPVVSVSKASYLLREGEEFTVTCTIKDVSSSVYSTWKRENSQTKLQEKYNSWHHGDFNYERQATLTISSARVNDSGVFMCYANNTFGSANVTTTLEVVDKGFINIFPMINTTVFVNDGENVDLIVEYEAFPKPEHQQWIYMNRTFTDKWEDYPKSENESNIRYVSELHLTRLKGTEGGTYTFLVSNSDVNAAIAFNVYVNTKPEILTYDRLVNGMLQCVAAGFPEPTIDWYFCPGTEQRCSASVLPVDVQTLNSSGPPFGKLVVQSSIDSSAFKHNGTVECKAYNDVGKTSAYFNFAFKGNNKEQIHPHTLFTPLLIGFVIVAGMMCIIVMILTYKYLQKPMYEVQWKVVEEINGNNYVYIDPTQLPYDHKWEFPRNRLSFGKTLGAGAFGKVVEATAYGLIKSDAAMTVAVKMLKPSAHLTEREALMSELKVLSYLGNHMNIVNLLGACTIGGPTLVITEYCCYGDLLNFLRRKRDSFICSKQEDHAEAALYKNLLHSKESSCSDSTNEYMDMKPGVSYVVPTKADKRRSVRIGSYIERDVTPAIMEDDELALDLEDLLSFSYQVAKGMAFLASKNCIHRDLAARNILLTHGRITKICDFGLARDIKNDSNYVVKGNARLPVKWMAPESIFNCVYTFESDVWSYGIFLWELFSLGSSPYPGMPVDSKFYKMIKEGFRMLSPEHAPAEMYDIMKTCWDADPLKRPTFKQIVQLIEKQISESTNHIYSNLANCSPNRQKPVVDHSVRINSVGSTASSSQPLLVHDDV", "experiment": "Kinase panel profiling", "assay_type": "biochemical", "parameters": "purchased Reaction Biology Corp", "settings": "10 μM ATP", "method": "as §5"}},
  "data": [
    {"compound": "Cc1ccc(NC(=O)c2ccc(CN3CCN(C)CC3)c(C(F)(F)F)c2)cc1-c1cnc2sc(N)nc2c1", "note": "[6r]", "values": [
      {"measurement": "GI50", "setting": "GIST-T1 cells [1]", "value": 10, "unit": "nM"},
      {"measurement": "GI50", "setting": "HMC1.2 cells [2]", "value": "1150 ± 960", "unit": "nM"},
      {"measurement": "GI50", "setting": "c-KIT D816V Ba/F3 cells [3]", "value": "1110 ± 470", "unit": "nM"},
      {"measurement": "GI50", "setting": "parental Ba/F3 cells", "value": "8.06 ± 0.57", "unit": "µM"},
      {"measurement": "c-KIT auto-phosphorylation", "setting": "[4]", "value": "completely inhibited"},
      {"measurement": "levels of phosphorylated c-KIT (Tyr703) and downstream mediators p-AKT, p-ERK, p-PLCγ, p-STAT3", "setting": "[5]", "value": "remarkably inhibited"},
      {"measurement": "c-KIT auto-phosphorylation", "setting": "[6]", "value": "completely inhibited"},
      {"measurement": "production of apoptotic cells", "setting": "c-KIT D816V Ba/F3 cells [7]", "value": "remarkably induced"},
      {"measurement": "G0/G1 arrest induced compared to control", "setting": "GIST-T1 cells [8]", "value": "25–35%"},
      {"measurement": "G0/G1 arrest compared with imatinib", "setting": "HMC1.2 cells [9]", "value": "more strongly"},
      {"measurement": "cell migration decreased compared to control", "setting": "GIST-T1 cells [10]", "value": "50–70%"},
      {"measurement": "anchorage-independent growth", "setting": "GIST-T1 cells [11]; GIST-T1, 0.05 μM, compared to control", "value": "completely suppressed"},
      {"measurement": "anchorage-independent growth", "setting": "GIST-T1 cells [11]; GIST-T1, two different concentrations", "value": "dramatic inhibition"},
      {"measurement": "inhibition at 1 µM", "setting": "CAMK1d", "value": 14.3, "unit": "%"},
      {"measurement": "inhibition at 1 µM", "setting": "CK1d", "value": 27.3, "unit": "%"},
      {"measurement": "inhibition at 1 µM", "setting": "MKK7", "value": 7.3, "unit": "%"},
      {"measurement": "inhibition at 1 µM", "setting": "PKA", "value": 5.3, "unit": "%"},
      {"measurement": "inhibition at 1 µM", "setting": "SRPK2", "value": 9, "unit": "%"},
      {"measurement": "inhibition at 1 µM", "setting": "STK25/YSK1", "value": 9.3, "unit": "%"},
      {"measurement": "inhibition at 1 µM", "setting": "TEC", "value": 1.6, "unit": "%"},
      {"measurement": "inhibition at 1 µM", "setting": "c-MER", "value": 6.1, "unit": "%"},
      {"measurement": "inhibition at 1 µM", "setting": "c-KIT", "value": 98.7, "unit": "%"}
    ]}
  ]
}
